The text below walks through data of patent publication US10562909B2, “Fused quadracyclic compounds, compositions and uses thereof” (Tabomedex Biosciences, LLC, priority 2016, dated 2020).

pIC50: −log10 of the molar value. Some results are limits rather than exact numbers.

What is called pIC50 is the negative decadic logarithm of the IC50, by convention in mol/L.

Chain of MAPKAPK2 (P49137 whole entry, species assumed): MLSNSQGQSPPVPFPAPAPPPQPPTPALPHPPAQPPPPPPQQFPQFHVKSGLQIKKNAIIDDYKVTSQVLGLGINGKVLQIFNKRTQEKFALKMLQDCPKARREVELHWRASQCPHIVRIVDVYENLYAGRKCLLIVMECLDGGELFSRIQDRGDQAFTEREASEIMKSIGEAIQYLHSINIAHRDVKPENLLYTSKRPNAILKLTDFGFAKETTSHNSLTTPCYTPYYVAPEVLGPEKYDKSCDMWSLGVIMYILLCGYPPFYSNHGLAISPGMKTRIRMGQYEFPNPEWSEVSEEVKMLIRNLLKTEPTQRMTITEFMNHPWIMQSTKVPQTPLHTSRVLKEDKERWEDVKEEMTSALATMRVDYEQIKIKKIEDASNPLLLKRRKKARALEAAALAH

This assay has as its target MAPKAPK2 (Homo sapiens, UniProt P49137). Put plainly: MK2 Enzymatic Assay. In kind it is biochemical. Particulars: 0.5 nM MAPKAPK2, 3 μM ATP, 2 μM Ser/Thr4 peptide, 23° C., values given as concentration bins. The method, boiled down:
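Percent phosphorylation was derived from coumarin and fluorescein emissions relative to 0% and 100% phospho-peptide controls, read after a 120 min development step. Reactions used 2× stocks of 1 nM kinase, 4 μM peptide and 6 μM ATP; enzyme and peptide sat 20 min before a 120 min ATP reaction.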
Consider `C[C@@H](CO)N1CC2(CCN(c3ccc4c(c3)Cn3cc(-c5ccc(F)cc5)cc3-c3nccn3-4)C2)C1` [Compound 371, (S)-2-(6-(12-(4-fluorophenyl)-9H-benzo[e]imidazo[2,1-c]pyrrolo[1,2-a][1,4]diazepin-7-yl)-2,6-diazaspiro[3.4]octan-2-yl)propan-1-ol], for which the pIC50 was above 7.30. To `CN(C)[C@@H]1CN(c2ccc3c(c2)Cn2cc(-c4ccc(C#N)cc4)cc2-c2nccn2-3)C[C@H]1O` [Compound 130, 4-(7-((3R,4R)-3-(dimethylamino)-4-hydroxypyrrolidin-1-yl)-9H-benzo[e]imidazo[2,1-c]pyrrolo[1,2-a][1,4]diazepin-12-yl)benzonitrile] belongs above 7.30.

`N#Cc1ccc(-c2cc3n(c2)Cc2cc(N4CCC5(CNC5)C4)ncc2-n2ccnc2-3)cc1` [Compound 323, 4-(7-(2,6-diazaspiro[3.4]octan-6-yl)-9H-imidazo[2,1-c]pyrido[3,4-e]pyrrolo[1,2-a][1,4]diazepin-12-yl)benzonitrile]: the pIC50 was 7.00 to 7.30. In the case of `CNCC1CN(c2cc3c(cn2)-n2cnnc2-c2cc(-c4ccc(F)cc4)cn2C3)C1` [Compound 330, 1-(1-(12-(4-fluorophenyl)-9H-benzo[e]pyrrolo[1,2-a][1,2,4]triazolo[3,4-c][1,4]diazepin-7-yl)azetidin-3-yl)-N-methylmethanamine], the pIC50 was 7.00 to 7.30.

The compound `N#Cc1ccc(-c2cc3n(c2)Cc2cc(N4CC[C@H]5NCC[C@@H]54)ccc2-n2nnnc2-3)cc1` (racemic) [Compound 232, 4-(7-(trans-hexahydropyrrolo[3,2-b]pyrrol-1(2H)-yl)-9H-benzo[e]pyrrolo[1,2-a]tetrazolo[5,1-c][1,4]diazepin-12-yl)benzonitrile] had a pIC50 above 7.30. To `CN(C)[C@@H]1CN(c2ccc3c(c2)Cn2cc(-c4ccc(F)cc4)cc2-c2ncnn2-3)C[C@H]1CO` (relative stereo) [Compound 504, (Trans-4-(dimethylamino)-1-(12-(4-fluorophenyl)-9H-benzo[e]pyrrolo[1,2-a][1,2,4]triazolo[5,1-c][1,4]diazepin-7-yl)pyrrolidin-3-yl)methanol] belongs 6.70 to 7.00; to `CN(C)C[C@@H]1CN(c2ccc3c(c2)Cn2cc(-c4ccc(C#N)cc4)cc2-c2nncn2-3)C[C@@H]1O` [Compound 82, 4-(7-((3R,4R)-3-((dimethylamino)methyl)-4-hydroxypyrrolidin-1-yl)-9H-benzo[e]pyrrolo[1,2-a][1,2,4]triazolo[3,4-c][1,4]diazepin-12-yl)benzonitrile], above 7.30. Under `Fc1ccc(-c2cc3n(c2)Cc2cc(N4CCC5(CNC5)C4)ccc2-n2nnnc2-3)cc1` [Compound 398, 12-(4-fluorophenyl)-7-(2,6-diazaspiro[3.4]octan-6-yl)-9H-benzo[e]pyrrolo[1,2-a]tetrazolo[5,1-c][1,4]diazepine] stands above 7.30. To `CN(C)C[C@@H]1CCN(c2ccc3c(c2)Cn2c(cc(-c4ccc(C#N)cc4)c2Cl)-c2nncn2-3)C1` [Compound 170, (S)-4-(11-chloro-7-(3-((dimethylamino)methyl)pyrrolidin-1-yl)-9H-benzo[e]pyrrolo[1,2-a] [1,2,4]triazolo[3,4-c][1,4]diazepin-12-yl)benzonitrile] belongs 7.00 to 7.30.

The compound `C[C@H](CO)N1CC2(CCN(c3ccc4c(c3)Cn3cc(-c5ccc(F)cc5)cc3-c3nccn3-4)C2)C1` [Compound 370, (R)-2-(6-(12-(4-fluorophenyl)-9H-benzo[e]imidazo[2,1-c]pyrrolo[1,2-a][1,4]diazepin-7-yl)-2,6-diazaspiro[3.4]octan-2-yl)propan-1-ol] gave a pIC50 above 7.30. To `CN(C)C[C@H]1CCN(c2ccc3c(c2)Cn2cc(-c4ccc(C#N)cc4)cc2-c2ncnn2-3)C1` [Compound 255, (R)-4-(7-(3-((dimethylamino)methyl)pyrrolidin-1-yl)-9H-benzo[e]pyrrolo[1,2-a][1,2,4]riazolo[5,1-c][1,4]diazepin-12-yl)benzonitrile] belongs above 7.30. Under `Fc1ccc(-c2cc3n(c2)Cc2cc(N4CCC5(CNC5)C4)ccc2-n2cnnc2-3)cc1` [Compound 336, 12-(4-fluorophenyl)-7-(2,6-diazaspiro[3.4]octan-6-yl)-9H-benzo[e]pyrrolo[1,2-a][1,2,4] triazolo[3,4-c][1,4]diazepine] stands above 7.30. To `CNCc1cnc2n1-c1ccc(N3CC[C@@H](N(C)C)C3)cc1Cn1cc(-c3ccc(C#N)cc3)cc1-2` [Compound 276, 4-(7-((R)-3-(dimethylamino)pyrrolidin-1-yl)-3-((methylamino)methyl)-9H-benzo[e]imidazo[2,1-c]pyrrolo[1,2-a][1,4]diazepin-12-yl)benzonitrile] belongs above 7.30; to `Fc1ccc(-c2cc3n(c2)Cc2nc(N4CCC5(CNC5)C4)ccc2-n2ccnc2-3)cc1` [Compound 440, 12-(4-fluorophenyl)-7-(2,6-diazaspiro[3.4]octan-6-yl)-9H-imidazo[2,1-c]pyrido[3,2-e] pyrrolo[1,2-a][1,4]diazepine], above 7.30; to `CN(C)C[C@H]1CN(c2ccc3c(c2)Cn2cc(-c4ccc(C#N)cc4)cc2-c2nncn2-3)C[C@H]1O` (relative stereo) [Compound 75, 4-(7-(Cis-3-((dimethylamino)methyl)-4-hydroxypyrrolidin-1-yl)-9H-benzo[e]pyrrolo[1,2-a] [1,2,4]triazolo[3,4-c][1,4]diazepin-12-yl)benzonitrile], above 7.30.

`CN(C)[C@H]1CN(c2ccc3c(c2)Cn2cc(-c4ccc(F)cc4)cc2-c2nccn2-3)C[C@@H]1O` [Compound 352, (3S,4S)-4-(dimethylamino)-1-(12-(4-fluorophenyl)-9H-benzo[e]imidazo[2,1-c]pyrrolo[1,2-a] [1,4]diazepin-7-yl)pyrrolidin-3-ol] showed a pIC50 above 7.30. Consider `C[C@H](CO)NC[C@H]1CCN(c2ccc3c(c2)Cn2cc(-c4ccc(C#N)cc4)cc2-c2nncn2-3)C1` [Compound 85, 4-(7-((R)-3-((((R)-1-hydroxypropan-2-yl)amino)methyl)pyrrolidin-1-yl)-9H-benzo[e]pyrrolo[1,2-a][1,2,4]triazolo[3,4-c][1,4]diazepin-12-yl)benzonitrile], for which the pIC50 was above 7.30. Under `CNC[C@@H]1CN(c2ccc3c(c2)Cn2cc(-c4ccc(F)cc4)cc2-c2ncnn2-3)C[C@@H]1F` [Compound 499, 1-((3R,4R)-4-fluoro-1-(12-(4-fluorophenyl)-9H-benzo[e]pyrrolo[1,2-a][1,2,4]triazolo[5,1-c] [1,4]diazepin-7-yl)pyrrolidin-3-yl)-N-methylmethanamine] stands above 7.30; under `CN(C)[C@@H]1CN(c2ccc3c(c2)Cn2cc(-c4ccc(C#N)cc4)cc2-c2nncn2-3)C[C@@H]1O` [Compound 83, 4-(7-((3R,4S)-3-(dimethylamino)-4-hydroxypyrrolidin-1-yl)-9H-benzo[e]pyrrolo[1,2-a] [1,2,4]triazolo[3,4-c][1,4]diazepin-12-yl)benzonitrile], 7.00 to 7.30. For the compound `CN(C)[C@H]1CN(c2ccc3c(c2)Cn2cc(-c4ccc(C#N)cc4)cc2-c2nccn2-3)C[C@@H]1O` [Compound 131, 4-(7-((3S,4S)-3-(dimethylamino)-4-hydroxypyrrolidin-1-yl)-9H-benzo[e]imidazo[2,1-c]pyrrolo[1,2-a][1,4]diazepin-12-yl)benzonitrile], the pIC50 was above 7.30.

In the case of `C[C@@H]1CN(c2ccc3c(c2)Cn2cc(-c4ccc(C#N)cc4)cc2-c2nnnn2-3)C[C@H](C)N1` [Compound 242, 4-(7-(cis-3,5-dimethylpiperazin-1-yl)-9H-benzo[e]pyrrolo[1,2-a]tetrazolo[5,1-c][1,4]diazepin-12-yl)benzonitrile], the pIC50 is 7.00 to 7.30. Under `CN[C@@H]1CCN(c2ccc3c(c2)Cn2cc(-c4ccc(F)cc4)cc2-c2ncnn2-3)C1` [Compound 409, (R)-1-(12-(4-fluorophenyl)-9H-benzo[e]pyrrolo[1,2-a][1,2,4]triazolo[5,1-c][1,4]diazepin-7-yl)-N-methylpyrrolidin-3-amine] stands 6.70 to 7.00. `C[C@H](CO)NC[C@H]1CCN(c2ccc3c(n2)Cn2cc(-c4ccc(F)cc4)cc2-c2nccn2-3)C1` [Compound 434, (R)-2-((((R)-1-(12-(4-fluorophenyl)-9H-imidazo[2,1-c]pyrido[3,2-e]pyrrolo[1,2-a][1,4]diazepin-7-yl)pyrrolidin-3-yl)methyl)amino)propan-1-ol] showed a negative logarithm of the IC50 (pIC50) above 7.30. Compound `N#Cc1ccc(-c2cc3n(c2)Cc2nc(N4CCC5(CNC5)C4)ccc2-n2ccnc2-3)cc1` [Compound 310, 4-(7-(2,6-diazaspiro[3.4]octan-6-yl)-9H-imidazo[2,1-c]pyrido[3,2-e]pyrrolo[1,2-a][1,4]diazepin-12-yl)benzonitrile] had a negative-log IC50 (pIC50) above 7.30. To `CN(C)[C@@H]1CCN(c2ccc3c(c2)Cn2cc(-c4ccc(C#N)cc4)cc2-c2ncc(CN)n2-3)C1` [Compound 277, 4-(3-(aminomethyl)-7-((R)-3-(dimethylamino)pyrrolidin-1-yl)-9H-benzo[e]imidazo[2,1-c]pyrrolo[1,2-a][1,4]diazepin-12-yl)benzonitrile] belongs 7.00 to 7.30; to `CN1CC2(CCN(c3ccc4c(c3)Cn3cc(-c5ccc(C#N)cc5)cc3-c3nnnn3-4)C2)C1` [Compound 240, 4-(7-(2-methyl-2,6-diazaspiro[3.4]octan-6-yl)-9H-benzo[e]pyrrolo[1,2-a]tetrazolo[5,1-c] [1,4]diazepin-12-yl)benzonitrile], above 7.30; to `CN(C)[C@@H]1CCN(c2cc3c(cn2)-n2cnnc2-c2cc(-c4ccc(C#N)cc4)cn2C3)C1` [Compound 319, (R)-4-(7-(3-(dimethylamino)pyrrolidin-1-yl)-9H-pyrido[3,4-e]pyrrolo[1,2-a][1,2,4]triazolo[3,4-c][1,4]diazepin-12-yl)benzonitrile], 7.00 to 7.30.

Regarding `OC[C@@H]1CNC[C@H]1Nc1ccc2c(c1)Cn1cc(-c3ccc(F)cc3)cc1-c1nccn1-2` (relative stereo) [Compound 495, (Trans-4-((12-(4-fluorophenyl)-9H-benzo[e]imidazo[2,1-c]pyrrolo[1,2-a][1,4]diazepin-7-yl)amino)pyrrolidin-3-yl)methanol], the pIC50 was 6.70 to 7.00.
